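Following 48 hours of exposure in 96-well plates, responses at five concentrations were used to interpolate endpoints linearly. Abbreviation: GI50, concentration required for 50% inhibition of growth.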 Activity calls are given as the source filed them. Rule as the data show it: active = GI50 up to about 1.1 µM and inactive = higher. Where a SMILES comes first, the peptide text is derived from it. [ ]: non-standard residue; d: D form. The star is where a group is joined. ξ: configuration not given here. ξF = NC(Cc1ccccc1)C(=O)O; Cbz = O=C(OCc1ccccc1)*; Aib = CC(C)(N)C(=O)O
Experiments:
Experiment in all cases: DTP human tumour cell line panel, 48 h
T47D = test system: T47D
MDA-MB-231 = test system: MDA-MB-231
MDA-N = test system: MDA-N
BT-549 = test system: BT-549

| SMILES | GI50 (T47D) | GI50 (MDA-MB-231) | GI50 (MDA-N) | GI50 (BT-549) |
| --- | --- | --- | --- | --- |
| CC(C)CC(NC(=O)C(O)C(N)Cc1ccccc1)C(=O)O (stereo unspecified) | > 100 µM (inactive) | > 100 µM (inactive) | > 100 µM (inactive) |  |
| O=c1cccc2n1C[C@H]1CNC[C@H]2C1 |  | > 100 µM (inactive) | > 100 µM (inactive) | > 100 µM (inactive) |
| CCOP(=O)(CCCC(O)CNc1nc(N)nc(Cl)c1/N=N/c1ccc(Cl)cc1)OCC (stereo unspecified) | 5.09 µM (inactive) | 2.59 µM (inactive) | 5.82 µM (inactive) | 6.28 µM (inactive) |
| COC(=O)C(C)(C)NC(=O)C(Cc1ccccc1)NC(=O)C(C)(C)NC(=O)OCc1ccccc1 (stereo unspecified) (Cbz-[Aib]-[ξF]-[Aib]-OMe) | > 100 µM (inactive) | > 100 µM (inactive) | > 100 µM (inactive) |  |
| CCSc1ncnc2c(C3OC(CO)C(O)C3O)nsc12 (stereo unspecified) | > 100 µM (inactive) | > 100 µM (inactive) | > 100 µM (inactive) |  |
| Cc1ccc2c(c1)/C(=N/Nc1ccccc1[N+](=O)[O-])C(=O)N2 | 2.83 µM (inactive) | 1.61 µM (inactive) | 3.37 µM (inactive) | 45.8 µM (inactive) |
| Fc1ccccc1C1SCc2nc3cc4ccccc4cc3n21 (stereo unspecified) | 14 µM (inactive) | 13.2 µM (inactive) | 79.1 µM (inactive) | > 100 µM (inactive) |
| CC(=O)c1cc(I)c(O)c2ncccc12 | 5.74 µM (inactive) | 2.55 µM (inactive) | 5.02 µM (inactive) | 5.07 µM (inactive) |
| COc1cc(/C=C2\CCC(C)C3=C2N=c2s/c(=C/c4ccc(Cl)cc4)c(=O)n2C3c2cc(OC)c(OC)c(OC)c2)cc(OC)c1OC (stereo unspecified) |  | > 100 µM (inactive) | > 100 µM (inactive) |  |
| NC(=O)CC(/N=C1\C(=O)OC(C(O)CO)\C1=N/C(CC(N)=O)C(=O)O)C(=O)O (stereo unspecified) | > 100 µM (inactive) | > 100 µM (inactive) | > 100 µM (inactive) |  |
| CN(C)CCOc1ccc2[nH]c(C(=O)N3CC(CCl)c4c3cc(N)c3ccccc43)cc2c1 (stereo unspecified) | < 0.01 µM (active) | < 0.01 µM (active) | < 0.01 µM (active) | < 0.01 µM (active) |
| Cc1cc(-n2c(/C=C/c3ccc(Cl)cc3)nc3cc(Cl)ccc3c2=O)on1 | > 50 µM (inactive) | 15.6 µM (inactive) | 24.8 µM (inactive) | > 50 µM (inactive) |
| Cc1cc(NC2=NCCO2)c2c(c1C)CCCC2 | 13.6 µM (inactive) | 24 µM (inactive) |  |  |
| O=C1NC(=O)/C(=C/c2ccc(S(=O)(=O)N/N=C/c3ccccc3)cc2)N1 | > 100 µM (inactive) | > 100 µM (inactive) | > 100 µM (inactive) | > 100 µM (inactive) |
| O=C(O)Cc1cccc2c(=O)c3cccc([N+](=O)[O-])c3[nH]c12 | > 100 µM (inactive) | > 100 µM (inactive) | > 100 µM (inactive) | 27 µM (inactive) |
| O=C(NCCNCCCNC(=O)c1cc(-c2ccccc2)nc2ccccc12)c1cccc(OCc2ccccc2)c1OCc1ccccc1 | 2.18 µM (inactive) | 1.71 µM (inactive) | 1.66 µM (inactive) | 1.72 µM (inactive) |
| Cc1ccc(C(=O)N/N=C(\N=N\c2cccc([N+](=O)[O-])c2)c2ccc(N(CCC#N)CCC#N)cc2C)cc1 | 9.18 µM (inactive) | 30.5 µM (inactive) | 25.1 µM (inactive) | 19.6 µM (inactive) |
| CC1(C)N=C(C2CCCN2C(=O)OCc2ccccc2)OC1=O (stereo unspecified) |  | > 100 µM (inactive) | > 100 µM (inactive) | > 100 µM (inactive) |
| Brc1sc(Br)c2c1[C@H](Br)C[C@@H]2Br | 26.1 µM (inactive) | 31.1 µM (inactive) | 38.1 µM (inactive) | 29 µM (inactive) |
| Cc1c(Cl)nc(Cl)nc1Cl | 1.58 µM (inactive) | 1.43 µM (inactive) | 2.18 µM (inactive) | 3.65 µM (inactive) |

| SMILES | GI50 (T47D) | GI50 (MDA-MB-231) | GI50 (MDA-N) | GI50 (BT-549) |
| --- | --- | --- | --- | --- |
| C=CC(Br)(CBr)CCC(Cl)C(C)C (stereo unspecified) |  | 1.4 µM (inactive) | 1.45 µM (inactive) | 1.6 µM (inactive) |
| O=C(O)C1C(Br)(c2ccccc2)C1(Br)c1ccccc1 (stereo unspecified) | 17.6 µM (inactive) | 39.7 µM (inactive) |  | 19.9 µM (inactive) |
| CCCCN=C(OC1C=CCCC1)SC (stereo unspecified) | > 100 µM (inactive) | > 100 µM (inactive) | > 100 µM (inactive) | > 100 µM (inactive) |
| O=C(Cc1csc2[n+]1C(=O)/C(=C/c1ccc(Cl)cc1)S2)Nc1ccccc1 | 16.4 µM (inactive) | 14.8 µM (inactive) | 30.4 µM (inactive) | 22.5 µM (inactive) |
| CC1CCC2(CC1)NC1=C(CC(C)CC1)C1=C2CC(C)CC1 (stereo unspecified) | 24.3 µM (inactive) | 20.5 µM (inactive) | 31.3 µM (inactive) | 19.1 µM (inactive) |
| O=S(=O)(OI(O)CC(F)(F)F)C(F)(F)F | > 100 µM (inactive) | > 100 µM (inactive) |  | > 100 µM (inactive) |
| N=C(N)NS(=O)(=O)c1ccc(Nc2c3ccccc3nc3c(C(=O)NCCO)cccc23)cc1 | 0.148 µM (active) | 0.207 µM (active) | 0.267 µM (active) | 0.143 µM (active) |
| CN(C)C(=S)SCc1ccccc1 | 0.033 µM (active) | 99.1 µM (inactive) | > 100 µM (inactive) | 87.9 µM (inactive) |
| CN(C)CCCCN1c2ccccc2Sc2ccc(N=[N+]=[N-])cc21 | 4.32 µM (inactive) | 7.28 µM (inactive) | 1.82 µM (inactive) | 11.8 µM (inactive) |
| CCN(CC)C(=S)N/N=C(\C)c1cccc(C)n1 | < 0.01 µM (active) | < 0.01 µM (active) | 0.474 µM (active) | 0.776 µM (active) |
| CN(C)c1nc2sc3c(c2c(=O)o1)CCCC3 | 26.8 µM (inactive) | 41.5 µM (inactive) | 38.2 µM (inactive) | 12.3 µM (inactive) |
| CN1COCc2c1ccc1cc3ccc4c(c3nc21)COCN4S(C)(=O)=O | > 100 µM (inactive) | > 100 µM (inactive) | > 100 µM (inactive) | > 100 µM (inactive) |
| Cc1ccc(S(=O)(=O)N/N=C2/C3CCC(C3)C2c2ccccc2)cc1 (stereo unspecified) | > 100 µM (inactive) |  | > 100 µM (inactive) | > 100 µM (inactive) |
| CC1CN=C(N(C(=O)Nc2ccc(Cl)c(Cl)c2)c2ccccc2)S1 (stereo unspecified) | 20.2 µM (inactive) | > 100 µM (inactive) | 36 µM (inactive) |  |
| C=C[C@H]1CN2CCc3c([nH]c4c([C@@H]5CCCN5C)c(O)ccc34)[C@@H]2C[C@@H]1C[C@H]1c2[nH]c3ccccc3c2CCN1C | 1.48 µM (inactive) | 1.63 µM (inactive) | 0.49 µM (active) | 1.75 µM (inactive) |
| CC(C)=CCC/C(C)=C/CC/C(C)=C/CC/C(=C/CC/C(C)=C\CC/C(C)=C/CC/C(C)=C/CC/C(C)=C/Cc1cc(O)ccc1O)CO | 6.05 µM (inactive) | 27.3 µM (inactive) | 3.21 µM (inactive) | 3.6 µM (inactive) |
| CCC(=O)ONC(=O)Cn1ccc([N+](=O)[O-])n1 |  | > 100 µM (inactive) | > 100 µM (inactive) |  |
| Cn1cc(C(=O)c2nccc3c2cnc2ccccc23)ccc1=O | > 100 µM (inactive) | > 100 µM (inactive) | > 100 µM (inactive) |  |
| Cc1oc(N)c(S(=O)(=O)c2cc3ccccc3[n+]([O-])c2N)c1C | > 100 µM (inactive) | > 100 µM (inactive) | > 100 µM (inactive) | > 100 µM (inactive) |
| COc1ccccc1-c1cc(O)c2c(C)cc(C)nc2n1 | 8.13 µM (inactive) | 84.3 µM (inactive) |  | 96.2 µM (inactive) |

From ChEMBL document CHEMBL1201862, “PubChem BioAssay data set” (2004)
